Results taken from PubChem BioAssay (NCI).
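The concentration for 50% growth inhibition is given as GI50. Definition used: TGI = concentration required for complete inhibition of growth.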

How the values were obtained:
Experiment in all cases: NCI-60 cell line screen, 384-well format
786-0 renal = tested on: 786-0 renal
A498 renal = tested on: A498 renal
A549 NSCLC = tested on: A549 NSCLC
ACHN renal = tested on: ACHN renal
BT-549 breast = tested on: BT-549 breast
CAKI-1 renal = tested on: CAKI-1 renal
CCRF-CEM leukemia = tested on: CCRF-CEM leukemia
COLO 205 colon = tested on: COLO 205 colon
DU-145 prostate = tested on: DU-145 prostate
EKVX NSCLC = tested on: EKVX NSCLC
HCC-2998 colon = tested on: HCC-2998 colon
HCT-15 colon = tested on: HCT-15 colon
HL-60(TB) leukemia = tested on: HL-60(TB) leukemia
HOP-62 NSCLC = tested on: HOP-62 NSCLC
HOP-92 NSCLC = tested on: HOP-92 NSCLC
HS 578T breast = tested on: HS 578T breast
HT29 colon = tested on: HT29 colon
IGROV1 ovarian = tested on: IGROV1 ovarian
KM12 colon = tested on: KM12 colon
M14 melanoma = tested on: M14 melanoma
MALME-3M melanoma = tested on: MALME-3M melanoma
MCF7 breast = tested on: MCF7 breast
MDA-MB-231 breast = tested on: MDA-MB-231 breast
MDA-MB-435 melanoma = tested on: MDA-MB-435 melanoma
MDA-MB-468 breast = tested on: MDA-MB-468 breast
MOLT-4 leukemia = tested on: MOLT-4 leukemia
NCI-H226 lung = tested on: NCI-H226 lung
NCI-H23 lung = tested on: NCI-H23 lung
NCI-H322M lung = tested on: NCI-H322M lung
NCI-H460 NSCLC = tested on: NCI-H460 NSCLC
NCI-H522 lung = tested on: NCI-H522 lung
NCI/ADR-RES ovarian = tested on: NCI/ADR-RES ovarian
OVCAR-3 ovarian = tested on: OVCAR-3 ovarian
OVCAR-4 ovarian = tested on: OVCAR-4 ovarian
OVCAR-5 ovarian = tested on: OVCAR-5 ovarian
OVCAR-8 ovarian = tested on: OVCAR-8 ovarian
PC-3 prostate = tested on: PC-3 prostate
RPMI-8226 leukemia = tested on: RPMI-8226 leukemia
RXF 393 renal = tested on: RXF 393 renal
SF-268 CNS = tested on: SF-268 CNS
SF-295 CNS = tested on: SF-295 CNS
SF-539 CNS = tested on: SF-539 CNS
SK-MEL-2 melanoma = tested on: SK-MEL-2 melanoma
SK-MEL-28 melanoma = tested on: SK-MEL-28 melanoma
SK-MEL-5 melanoma = tested on: SK-MEL-5 melanoma
SK-OV-3 ovarian = tested on: SK-OV-3 ovarian
SN12C renal = tested on: SN12C renal
SNB-19 CNS = tested on: SNB-19 CNS
SNB-75 CNS = tested on: SNB-75 CNS
SR leukemia = tested on: SR leukemia
SW-620 colon = tested on: SW-620 colon
T-47D breast = tested on: T-47D breast
TK-10 renal = tested on: TK-10 renal
U251 glioblastoma = tested on: U251 glioblastoma
UACC-257 melanoma = tested on: UACC-257 melanoma
UACC-62 melanoma = tested on: UACC-62 melanoma

For Nc1ccn([C@H]2C[C@@H](O)[C@@H](CO)S2)c(=O)n1, the GI50 (786-0 renal) was 54.1 µM, the TGI (786-0 renal) was > 100 µM and the GI50 (A498 renal) was > 100 µM. For the same molecule, the TGI (A498 renal) was > 100 µM, the GI50 (A549 NSCLC) was > 100 µM and the TGI (A549 NSCLC) was > 100 µM. The GI50 (ACHN renal) was > 100 µM, the TGI (ACHN renal) was > 100 µM and the GI50 (BT-549 breast) was 0.896 µM. For the same molecule, the TGI (BT-549 breast) was 26.3 µM, the GI50 (CAKI-1 renal) was > 100 µM and the TGI (CAKI-1 renal) was > 100 µM. The GI50 (CCRF-CEM leukemia) was 0.0552 µM, the TGI (CCRF-CEM leukemia) was 0.862 µM and the GI50 (COLO 205 colon) was > 100 µM. The TGI (COLO 205 colon) was > 100 µM, the GI50 (DU-145 prostate) was 20.2 µM and the TGI (DU-145 prostate) was > 100 µM. For the same molecule, the GI50 (EKVX NSCLC) was > 100 µM, the TGI (EKVX NSCLC) was > 100 µM and the GI50 (HCC-2998 colon) was 4.98 µM. The TGI (HCC-2998 colon) was > 100 µM, the GI50 (HCT-15 colon) was 1.71 µM and the TGI (HCT-15 colon) was > 100 µM. For the same molecule, the GI50 (HL-60(TB) leukemia) was 0.306 µM, the TGI (HL-60(TB) leukemia) was 1.26 µM and the GI50 (HOP-62 NSCLC) was 21.8 µM. For the same molecule, the TGI (HOP-62 NSCLC) was > 100 µM, the GI50 (HOP-92 NSCLC) was 2.35 µM and the TGI (HOP-92 NSCLC) was > 100 µM. For the same molecule, the GI50 (HS 578T breast) was > 100 µM, the TGI (HS 578T breast) was > 100 µM and the GI50 (HT29 colon) was > 100 µM. The TGI (HT29 colon) was > 100 µM, the GI50 (IGROV1 ovarian) was > 100 µM and the TGI (IGROV1 ovarian) was > 100 µM. For the same molecule, the GI50 (KM12 colon) was 9.08 µM, the TGI (KM12 colon) was > 100 µM and the GI50 (M14 melanoma) was > 100 µM. For the same molecule, the TGI (M14 melanoma) was > 100 µM, the GI50 (MALME-3M melanoma) was > 100 µM and the TGI (MALME-3M melanoma) was > 100 µM. For the same molecule, the GI50 (MCF7 breast) was > 100 µM, the TGI (MCF7 breast) was > 100 µM and the GI50 (MDA-MB-231 breast) was 2.95 µM. The TGI (MDA-MB-231 breast) was > 100 µM, the GI50 (MDA-MB-435 melanoma) was > 100 µM and the TGI (MDA-MB-435 melanoma) was > 100 µM. The GI50 (MDA-MB-468 breast) was > 100 µM, the TGI (MDA-MB-468 breast) was > 100 µM and the TGI (MOLT-4 leukemia) was 0.0271 µM. The GI50 (NCI-H226 lung) was 96.9 µM, the TGI (NCI-H226 lung) was > 100 µM and the GI50 (NCI-H23 lung) was > 100 µM. The TGI (NCI-H23 lung) was > 100 µM, the GI50 (NCI-H322M lung) was > 100 µM and the TGI (NCI-H322M lung) was > 100 µM. For the same molecule, the GI50 (NCI-H460 NSCLC) was 0.204 µM, the TGI (NCI-H460 NSCLC) was > 100 µM and the GI50 (NCI-H522 lung) was 0.113 µM. For the same molecule, the TGI (NCI-H522 lung) was 1.15 µM, the GI50 (NCI/ADR-RES ovarian) was 1.38 µM and the TGI (NCI/ADR-RES ovarian) was > 100 µM. For the same molecule, the GI50 (OVCAR-3 ovarian) was 3.29 µM, the TGI (OVCAR-3 ovarian) was > 100 µM and the GI50 (OVCAR-4 ovarian) was > 100 µM. The TGI (OVCAR-4 ovarian) was > 100 µM, the GI50 (OVCAR-5 ovarian) was > 100 µM and the TGI (OVCAR-5 ovarian) was > 100 µM. For the same molecule, the GI50 (OVCAR-8 ovarian) was 0.783 µM, the TGI (OVCAR-8 ovarian) was 30.8 µM and the GI50 (PC-3 prostate) was > 100 µM. For the same molecule, the TGI (PC-3 prostate) was > 100 µM, the GI50 (RPMI-8226 leukemia) was 0.368 µM and the TGI (RPMI-8226 leukemia) was 1.59 µM. For the same molecule, the GI50 (RXF 393 renal) was 6.98 µM, the TGI (RXF 393 renal) was > 100 µM and the GI50 (SF-268 CNS) was 54.4 µM. The TGI (SF-268 CNS) was > 100 µM, the GI50 (SF-295 CNS) was > 100 µM and the TGI (SF-295 CNS) was > 100 µM. The GI50 (SF-539 CNS) was > 100 µM, the TGI (SF-539 CNS) was > 100 µM and the GI50 (SK-MEL-2 melanoma) was > 100 µM. The TGI (SK-MEL-2 melanoma) was > 100 µM, the GI50 (SK-MEL-28 melanoma) was > 100 µM and the TGI (SK-MEL-28 melanoma) was > 100 µM. The GI50 (SK-MEL-5 melanoma) was 0.804 µM, the TGI (SK-MEL-5 melanoma) was > 100 µM and the GI50 (SK-OV-3 ovarian) was > 100 µM. The TGI (SK-OV-3 ovarian) was > 100 µM, the GI50 (SN12C renal) was 11.6 µM and the TGI (SN12C renal) was > 100 µM. The GI50 (SNB-19 CNS) was 4.99 µM, the TGI (SNB-19 CNS) was > 100 µM and the GI50 (SNB-75 CNS) was > 100 µM. The TGI (SNB-75 CNS) was > 100 µM, the GI50 (SR leukemia) was 2.5 µM and the TGI (SR leukemia) was 15.8 µM. The GI50 (SW-620 colon) was > 100 µM, the TGI (SW-620 colon) was > 100 µM and the GI50 (T-47D breast) was > 100 µM. For the same molecule, the TGI (T-47D breast) was > 100 µM, the GI50 (TK-10 renal) was > 100 µM and the TGI (TK-10 renal) was > 100 µM. For the same molecule, the GI50 (U251 glioblastoma) was > 100 µM, the TGI (U251 glioblastoma) was > 100 µM and the GI50 (UACC-257 melanoma) was > 100 µM. For the same molecule, the TGI (UACC-257 melanoma) was > 100 µM, the GI50 (UACC-62 melanoma) was > 100 µM and the TGI (UACC-62 melanoma) was > 100 µM.
